Experimental data published in patent publication US11124536B2, “Uridine nucleoside derivatives, compositions and methods of use” (Tufts University, priority 2013, dated 2021).
Entries after “also recorded” stand apart in the source; their conditions may differ. Each block holds one compound with its values, some of them ahead of it.

Columns and labels:
[1] = biological target: T1, P2Y6 receptor (Homo sapiens, UniProt Q15077); assay: Activation of P2Y6 receptor: receptor-induced Ca2+ changes with fluo-4; assay type: cell-based
T1 construct: expressed in transfected cells; host or cells: 1321N1 human astrocytoma cells
Procedure: Synthetic ligands were tested for activation of P2Y6 receptor by measuring receptor induced Ca^2+ changes with the fluorescent Ca^2+ indicator fluo-4. 1321N1 human astrocytoma cell lines either expressing P2Y2, P2Y4 or P2Y6 receptors were plated into 24-well plates. Two days after plating, fluorometric measurements were made and responses of cells to a serial dilution of ligands were determined. P2Y6 receptor mediated Ca^2+ fluorescent change was determined by normalized accumulation of fluorescent change of 3 timepoints after ligand administration subtracted by value from ACSF control. Changes in fluorescent intensity were plotted corresponding to ligand concention in GraphPad. Dose-response curve and EC50 for each ligand was estimated using nonlinear curve fit and Sigmoidal dose-response analysis. […]
Synthetic ligands were tested for activation of P2Y6 receptor by measuring receptor induced Ca^2+ changes with the fluorescent Ca^2+ indicator fluo-4, and results are shown in FIG. 10(A)-(K). […] Two days after plating, fluorometric measurements were made and responses of cells to a serial dilution of ligands were determined. P2Y6 receptor mediated Ca^2+ fluorescent change was determined by normalized accumulation of fluorescent change of 3 timepoints after ligand administration subtracted by value from ACSF control. […]

[2] = system: PSAPP mice; assay: Postmortem immunohistochemistry of amyloid beta plaque load in cortex and hippocampus; assay type: in vivo
Procedure: Mice were perfused transcardially with 4% paraformaldehyde and 40 μm Coronal sections were collected. Sections were sequentially incubated in 0.3% H2O2 for 10 minutes, blocking solution for 2 hrs, blocking solution containing the primary antibody (rabbit anti-beta1-42; rabbit anti-beta1-40, from Chemicon International and rat anti-CD45) for 48 hours at 4° C., and blocking solution containing biotinylated antibody or fluorescently-labeled antibody for 2 hours at room temperature. Sections were visualized in a bright field microscope or a confocal microscope, and the optical density was obtained using MetaMorph software.
To generate these graphs showing plaque load, mice were euthanized, brain sections cut and antibodies directed against Aβ 42 were used to disclose Aβ plaques. Images were acquired digitally and an algorithm was applied to threshold the image so that plaques were isolated from the background. The algorithm then calculated the percent area of the field of view occupied by the plaques.
Brain samples were collected for Abeta analysis with immunostaining. Brains samples were collected after transcardial perfusion with phosphate buffer and 4% paraformaldehyde. Floating brain sections (40 micron) were collected using a microtome. Immunostaining for Aβ40 and Aβ42 were performed according to previously established protocol. Images with DAB staining were collected with brightfield microscopy and analyzed with ImageJ Macro. All data analysis and statistics were performed in GraphPad Prism 6.0.

[3] = system: PSAPP mice; assay: Contextual fear conditioning test (freezing %); assay type: in vivo
Procedure: On day one, animals were trained in a fear conditioning apparatus for a total of 7 minutes with a two-pairing paradigm of cue and mild foot shock (a 30-s acoustic-conditioned stimulus, 80 dB; a 2-s shock stimulus, 0.5 mA). To evaluate contextual fear learning, the animals were returned to the training context 24 hours post-training, and freezing behavior was scored for 5 minutes. Freezing behavior was monitored by MotorMonitor (Hamilton Kinder) and scored every 5 seconds.
This represents a decrease in the cognitive impairment observed in the untreated mice.

[4] = system: human THP-1 cells; assay: Cytokine release from THP-1 cells into culture medium (multiplex cytokine analysis); assay type: cell-based
Procedure: THP-1 cells, a human cell line derived from monocytes, were treated in vitro with vehicle, the P2Y6 receptor antagonist MRS 2578, or compound 5, singly or in combination. THP-1 cells were seeded in 24 well plates at a density of 4×10^5 cells/well in culture medium for 24 hours. Thereafter, vehicle, compound 5, or MRS 2578 (singly or in combination) were added to the cultures for 24 hours. Subsequently the culture medium was aspirated and subjected to multiplex cytokine analysis. Data are presented as means+/−sem. MRS 2578 has a molecular weight of about 472 and is also described using CAS number 711019-86-2.

[5] = system: PSAPP mice; assay: Two-photon in vivo imaging of methoxyX04-labeled amyloid plaques in barrel cortex; conditions: UDP vs ACSF
Source text: In this study, PSAPP mice were anesthetized using isoflurane and a thin-skull preparation was used to minimize the surface damage. Amyloid plaques were visualized with methoxyX04 labeling and blood plasma was labeled with Rhodamine dextran to facilitate re-localization of the same imaging area. Stack images were obtained using a two-photon system (Prairie Technologies) with excitation at 850 nm. The emission was detected by external photomultiplier tubes (525/70; DLCP 575; 607/45 nm).
Animals were anesthetized and immobilized in a stereotaxic frame. For each injection, 1 μl of 10 mM UDP or other suitable compounds in artificial cerebrospinal fluid (ACSF) as the vehicle were injected intraventricularly using the following coordinates: AP 0.2 mm, ML 1 mm, and DV 2.2 mm.
To evaluate the effect of UDP on plaque burden, two-photon microscopy was used to assess the amyloid plaques in the barrel cortex in living PSAPP mice. Amyloid plaques were stained by systemically administered methoxy-X04. One day prior to imaging, PSAPP mice were injected with methoxyX04 to label the amyloid plaques. On the imaging day, to facilitate the re-location of the same imaging area, blood plasma was labeled with Rhodamine dextran. Images were obtained from the same start- and end-point to ensure the same image volume. […]

[6] = system: PSAPP mice; assay: Hippocampal long-term potentiation (LTP) recording, CA1; assay type: in vivo
Procedure: Hippocampal slices (350 μm thick) were prepared from 6-month-old PSAPP mice. Baseline responses were obtained every 10 seconds and Input-output (I/O) curves, paired-pulse modification and LTP were successively measured. The stimulation intensity was set to a level that gives a value of 30% of the maximum obtained. LTP were induced by high frequency stimulation (HFS, 100 pulses at 100 Hz, four times) or by theta-burst stimulation (TBS, 10 bursts at 5 Hz, repeated 10 times in 15 s intervals).
Accumulated evidence has shown that amyloid peptides naturally secreted or isolated from Alzheimer's brains impair synaptic plasticity, especially hippocampal long-term potentiation (Walsh et al., 2002). Therefore, we further performed LTP recordings in PASPP mice and investigated whether P2Y6 receptor-mediated plaque clearance affects synaptic plasticity. […] First, it was observed that LTP at the schaffer collateral synapse within the CA1 region was depressed in PSAPP mice, as compared with littermates (FIG. 8(A)).

T1 sequence (Q15077 whole entry): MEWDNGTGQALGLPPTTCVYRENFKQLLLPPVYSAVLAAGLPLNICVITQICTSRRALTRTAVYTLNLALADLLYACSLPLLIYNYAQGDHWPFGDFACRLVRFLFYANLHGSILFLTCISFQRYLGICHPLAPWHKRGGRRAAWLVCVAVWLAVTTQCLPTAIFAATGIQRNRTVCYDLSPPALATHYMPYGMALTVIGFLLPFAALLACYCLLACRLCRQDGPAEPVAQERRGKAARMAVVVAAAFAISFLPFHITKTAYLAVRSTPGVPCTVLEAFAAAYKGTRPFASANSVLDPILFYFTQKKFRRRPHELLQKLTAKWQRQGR

elevating Ca2+ levels in cells expressing P2Y6 receptors ([1]; 1321N1 human astrocytoma cells expressing P2Y6): only effective
SMILES: O=c1ccn([C@@H]2O[C@H](COP(=O)(O)OP(=O)(O)O)[C@@H](O)[C@H]2O)c(=O)n1Cc1noc2ccccc12

SMILES: O=C(Cn1c(=O)ccn([C@@H]2O[C@H](COP(=O)(O)OP(=O)(O)O)[C@@H](O)[C@H]2O)c1=O)c1ccccc1 [3-phenacyl-UDP, reference compound]
effects on the efficacy endpoint at the higher dose ([2]; 1 mg/kg, one week of daily treatment): smaller effects
β1-40 staining after treatment stopped ([2]; 6 consecutive days i.p. then stopped for 2 weeks (6+2 weeks group), level still lower than saline vehicle): rebounded
immunoreactivity of β1-40 in cortex ([2]; i.p. for 4 and 6 consecutive days, FIG. 6A): significantly decreased
immunoreactivity of β1-40 in hippocampus ([2]; i.p. for 4 and 6 consecutive days, FIG. 6B): significantly decreased
total freezing percentage in context test ([3]; chronic injection, two different doses): increased
memory deficit (contextual fear conditioning) compared to vehicle ([3]; one week treatment with 1 μg/kg, FIG. 9C): rescued the memory deficit

SMILES: S=C=Nc1cccc(NC(=S)NCCCCNC(=S)Nc2cccc(N=C=S)c2)c1 [MRS 2578]
effect of antagonist on Ca2+ signals elevated by the sodium salt of the diphosphate derivative of compound 5 ([1]; P2Y6 receptor expressing 1321N1 cells): attenuated
release of fractalkine, PDGF-BB, and IL-7 (concentration in culture medium) ([4]; 24 hours treatment vs vehicle, FIG. 25): increased
release of IL-7 from human THP-1 cells ([4]; MRS 2578 alone, 24 hours, FIG. 26): increased
effect of co-treatment on the decrease of IL-7/cytokine release caused by compound 5 ([4]; compound 5 plus MRS 2578, FIG. 26): blocked; also recorded: abrogated

SMILES: O=c1ccn([C@@H]2O[C@H](COP(=O)(O)OP(=O)(O)O)[C@@H](O)[C@H]2O)c(=O)[nH]1 [UDP, uridine diphosphate]
day 4/day 1 ratios of plaque load ([5]; FIG. 2D): significant reductions
number of plaques (day 4/day 1 ratios) ([5]; FIG. 2E): significant reductions
decrease in plaque load in the cortex, β1-42 antibody ([2]; acute UDP i.c.v., P<0.01): 48%
decrease in plaque load in the hippocampus, β1-42 antibody ([2]; acute UDP i.c.v., P<0.05): 47%
decrease in plaque load in the hippocampus, β1-40 antibody ([2]; acute UDP i.c.v., p<0.01): 62%
decrease in plaque load in the cortex, β1-40 antibody ([2]; acute UDP i.c.v., p<0.05): 60%
freezing behavior compared to ACSF treatment ([3]; UDP-treatment 3 days prior to the test, FIG. 7C): significantly improved
LTP deficit at schaffer collateral synapse, CA1 ([6]; acute UDP vs ACSF, HFS, FIG. 8B): reversed
field excitatory postsynaptic potential (fEPSP), last 15 min potentiation ([6]; acute UDP, comparable to littermates, FIG. 8C): significant increase
